Test results reported in ChEMBL document CHEMBL1201862, “PubChem BioAssay data set” (2004).
Active and inactive are the calls of the source.

Key:
[1] = NIH:OVCAR-3 ovarian cancer cell cytotoxicity, dose response, PAX8 inhibitor project, plate reader, dry powder samples (AID 743044); type: functional, cell-based
Paired box protein Pax-8 = Paired box protein Pax-8 (Homo sapiens, UniProt Q06710); assay: inhibitors of PAX8-driven TPO luciferase reporter, dose response, RMG-I cells, cherry-pick (AID 687027); type: functional, cell-based;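 further: luciferase reporter driven by Pax8 target thyroperoxidase promoter measured by SteadyGlo luminescence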
[2] = cytotoxicity in OVCAR8 ovarian cancer cells, dose response, PAX8 project, cell-based, plate reader, dry powder samples (AID 743197); type: functional; conditions: OVCAR-8
[3] = A2780 ovarian cancer cell cytotoxicity, dose response, cytotoxicity control, plate reader, dry powder samples (AID 743046); type: functional, cell-based
[4] = target: T1, Tyrosyl-DNA phosphodiesterase 2 (Homo sapiens, UniProt O95551); assay: human TDP2 enzyme inhibitors, dose response, biochemical, epi absorbance, IC50 (AID 743297)
T1 sequence (O95551 whole entry): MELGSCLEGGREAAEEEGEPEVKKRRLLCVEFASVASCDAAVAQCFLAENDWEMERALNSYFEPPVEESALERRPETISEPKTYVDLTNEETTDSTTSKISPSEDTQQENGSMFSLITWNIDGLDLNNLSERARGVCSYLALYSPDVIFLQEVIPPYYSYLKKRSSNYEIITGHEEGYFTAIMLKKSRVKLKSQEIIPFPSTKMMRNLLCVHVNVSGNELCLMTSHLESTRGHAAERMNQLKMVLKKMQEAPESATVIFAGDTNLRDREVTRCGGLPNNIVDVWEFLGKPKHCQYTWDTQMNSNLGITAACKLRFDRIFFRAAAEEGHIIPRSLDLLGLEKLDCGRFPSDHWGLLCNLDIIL

[5] = target: T2, Polyadenylate-binding protein 1 (Homo sapiens, UniProt P11940); assay: PABP1 MLLE–PAM2 binding inhibitor potency, dose response, biochemical, fluorescence polarization, FITC-PAM2 peptide (AID 602259); type: functional; conditions: read-out: IC50_Mean
[6] = target: T3, Replicative DNA helicase DnaB (Mycobacterium tuberculosis, UniProt P9WMR3); assay: DnaB intein splicing inhibitors, dose response, biochemical, cell-free fluorescence (AID 449749); type: functional
T3 sequence (P9WMR3 whole entry): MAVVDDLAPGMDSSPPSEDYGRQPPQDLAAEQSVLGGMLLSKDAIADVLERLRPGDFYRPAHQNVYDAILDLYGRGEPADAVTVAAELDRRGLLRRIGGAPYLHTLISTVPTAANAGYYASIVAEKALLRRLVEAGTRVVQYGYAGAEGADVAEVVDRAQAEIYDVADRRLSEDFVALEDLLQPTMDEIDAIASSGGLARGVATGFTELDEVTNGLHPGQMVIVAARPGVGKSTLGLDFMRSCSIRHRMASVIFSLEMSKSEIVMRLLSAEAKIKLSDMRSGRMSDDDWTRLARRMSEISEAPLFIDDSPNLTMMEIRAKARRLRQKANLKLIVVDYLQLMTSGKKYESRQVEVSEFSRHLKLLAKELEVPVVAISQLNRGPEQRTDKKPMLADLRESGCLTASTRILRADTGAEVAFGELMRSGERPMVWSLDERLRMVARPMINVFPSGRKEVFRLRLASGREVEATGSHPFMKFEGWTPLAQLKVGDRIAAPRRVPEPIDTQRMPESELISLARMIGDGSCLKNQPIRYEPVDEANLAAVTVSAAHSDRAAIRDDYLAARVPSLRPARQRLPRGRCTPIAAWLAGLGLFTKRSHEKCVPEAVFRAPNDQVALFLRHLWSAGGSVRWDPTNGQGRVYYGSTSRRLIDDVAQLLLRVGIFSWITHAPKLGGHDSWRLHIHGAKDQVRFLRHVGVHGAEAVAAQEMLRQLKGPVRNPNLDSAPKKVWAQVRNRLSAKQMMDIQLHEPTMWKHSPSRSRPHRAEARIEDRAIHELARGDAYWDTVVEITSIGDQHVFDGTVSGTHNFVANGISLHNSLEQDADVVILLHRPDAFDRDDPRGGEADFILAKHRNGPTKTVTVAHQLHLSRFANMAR

Genome polyprotein = Genome polyprotein (dengue virus type 2, UniProt P29990); assay: Dengue-2 NS5 methyltransferase inhibitors, primary screen, biochemical, confirmation dose response (AID 588689); type: functional
Protein RecA = target: T4, Protein RecA (Mycobacterium tuberculosis, UniProt P9WHJ3); assay: Fluorescence Cell-Free Homogeneous Dose Retest to Identify Inhibitors of RecA-Intein Splicing Activity. [Related pubchem assays (depositor defined):AID2097, AID2223, AID489010, AID492950]; type: functional
T4 sequence (P9WHJ3 whole entry): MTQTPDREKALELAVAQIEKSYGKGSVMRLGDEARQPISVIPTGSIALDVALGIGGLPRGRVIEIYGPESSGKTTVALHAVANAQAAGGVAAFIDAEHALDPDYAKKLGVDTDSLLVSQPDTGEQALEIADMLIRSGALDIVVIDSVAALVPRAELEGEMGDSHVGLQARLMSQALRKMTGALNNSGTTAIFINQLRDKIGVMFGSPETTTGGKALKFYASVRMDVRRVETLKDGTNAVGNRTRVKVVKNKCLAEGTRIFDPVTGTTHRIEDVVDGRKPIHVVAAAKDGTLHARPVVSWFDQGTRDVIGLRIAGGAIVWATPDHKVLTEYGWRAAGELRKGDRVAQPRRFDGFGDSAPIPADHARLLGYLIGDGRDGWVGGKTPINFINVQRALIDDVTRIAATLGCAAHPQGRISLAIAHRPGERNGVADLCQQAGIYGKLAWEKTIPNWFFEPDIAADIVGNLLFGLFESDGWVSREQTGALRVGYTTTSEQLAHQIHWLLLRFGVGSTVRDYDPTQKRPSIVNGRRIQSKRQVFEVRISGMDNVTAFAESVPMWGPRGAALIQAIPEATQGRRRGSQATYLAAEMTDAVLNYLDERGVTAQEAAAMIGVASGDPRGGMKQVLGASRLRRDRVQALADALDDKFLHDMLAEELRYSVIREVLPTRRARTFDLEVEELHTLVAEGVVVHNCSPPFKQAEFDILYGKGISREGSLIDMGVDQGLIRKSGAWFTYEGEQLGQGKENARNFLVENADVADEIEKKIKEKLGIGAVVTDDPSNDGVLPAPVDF

[7] = target: T2, Polyadenylate-binding protein 1; assay: PABP1 MLLE–PAM2 interaction inhibitors, dose response, miRNA deadenylation inhibitor project, biochemical, fluorescence polarization, Cy5-PAM2 peptide, secondary (AID 602260); type: functional; conditions: read-out: IC50_Mean
[8] = inhibitors of PGC1a acetylation in cells, dose response, cell-based, cherry-picked samples (AID 720514); type: functional;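 further: potency may reflect raised or lowered acetylation signal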
[9] = Concentration-dependent survival of SW480 colon cancer line, luminescence detection with CellTiter-Glo, half-maximal inhibitory concentration (AID 1117338); type: functional
[10] = CellTiter-Glo luminescent dose response of DLD-1 viability loss (AID 1117352); type: functional
[11] = SNU-C1 cell viability reduction, dose response, CellTiter-Glo luminescence (AID 1117323); type: functional, cell-based
[12] = cytotoxicity toward Colo320 cells – cell-based, CellTiter-Glo luminescence, IC50, dose response (AID 1117334); type: functional; conditions: COLO 320
[13] = cytotoxicity toward HT-29 cells – cell-based, CellTiter-Glo luminescence, IC50, dose response (AID 1117330); type: functional
[14] = RKO cell viability reduction, dose response, CellTiter-Glo luminescence (AID 1117322); type: functional
[15] = cytotoxicity toward HCT116 cells – cell-based, CellTiter-Glo luminescence, IC50, dose response (AID 1117332); type: functional; conditions: HCT-116

Paired box protein Pax-8, sequence (Q06710 whole entry): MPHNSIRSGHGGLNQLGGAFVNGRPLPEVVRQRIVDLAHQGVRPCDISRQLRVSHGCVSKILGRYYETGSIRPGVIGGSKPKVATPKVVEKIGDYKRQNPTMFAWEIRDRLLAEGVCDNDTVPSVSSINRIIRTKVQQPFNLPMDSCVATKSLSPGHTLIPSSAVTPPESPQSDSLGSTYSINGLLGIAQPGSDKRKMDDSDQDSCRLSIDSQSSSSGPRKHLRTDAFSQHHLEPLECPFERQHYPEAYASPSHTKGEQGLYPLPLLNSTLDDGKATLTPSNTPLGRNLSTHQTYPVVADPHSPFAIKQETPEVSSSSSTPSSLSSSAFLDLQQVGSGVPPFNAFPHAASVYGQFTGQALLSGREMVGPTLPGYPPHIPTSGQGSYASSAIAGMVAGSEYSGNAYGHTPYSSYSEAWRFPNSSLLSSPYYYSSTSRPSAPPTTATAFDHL
T2 sequence (P11940 whole entry): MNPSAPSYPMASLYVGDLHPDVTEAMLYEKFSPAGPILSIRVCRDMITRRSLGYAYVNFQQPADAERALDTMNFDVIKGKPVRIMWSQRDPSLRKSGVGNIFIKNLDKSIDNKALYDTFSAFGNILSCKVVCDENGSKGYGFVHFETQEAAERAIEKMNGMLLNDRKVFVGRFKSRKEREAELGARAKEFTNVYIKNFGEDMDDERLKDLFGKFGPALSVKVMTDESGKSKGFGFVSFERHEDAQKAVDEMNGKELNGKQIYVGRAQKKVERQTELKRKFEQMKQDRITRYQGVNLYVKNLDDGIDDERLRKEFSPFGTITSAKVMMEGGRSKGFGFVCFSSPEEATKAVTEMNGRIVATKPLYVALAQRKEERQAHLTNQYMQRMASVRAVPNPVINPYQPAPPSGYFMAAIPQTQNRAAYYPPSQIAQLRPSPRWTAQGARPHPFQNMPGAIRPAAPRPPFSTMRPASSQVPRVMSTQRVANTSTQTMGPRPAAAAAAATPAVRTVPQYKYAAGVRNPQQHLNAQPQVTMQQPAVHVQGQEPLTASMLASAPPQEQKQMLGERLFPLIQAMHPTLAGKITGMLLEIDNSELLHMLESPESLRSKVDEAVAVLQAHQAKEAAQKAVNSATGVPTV
Genome polyprotein, sequence (P29990 2492-3391 limits assumed): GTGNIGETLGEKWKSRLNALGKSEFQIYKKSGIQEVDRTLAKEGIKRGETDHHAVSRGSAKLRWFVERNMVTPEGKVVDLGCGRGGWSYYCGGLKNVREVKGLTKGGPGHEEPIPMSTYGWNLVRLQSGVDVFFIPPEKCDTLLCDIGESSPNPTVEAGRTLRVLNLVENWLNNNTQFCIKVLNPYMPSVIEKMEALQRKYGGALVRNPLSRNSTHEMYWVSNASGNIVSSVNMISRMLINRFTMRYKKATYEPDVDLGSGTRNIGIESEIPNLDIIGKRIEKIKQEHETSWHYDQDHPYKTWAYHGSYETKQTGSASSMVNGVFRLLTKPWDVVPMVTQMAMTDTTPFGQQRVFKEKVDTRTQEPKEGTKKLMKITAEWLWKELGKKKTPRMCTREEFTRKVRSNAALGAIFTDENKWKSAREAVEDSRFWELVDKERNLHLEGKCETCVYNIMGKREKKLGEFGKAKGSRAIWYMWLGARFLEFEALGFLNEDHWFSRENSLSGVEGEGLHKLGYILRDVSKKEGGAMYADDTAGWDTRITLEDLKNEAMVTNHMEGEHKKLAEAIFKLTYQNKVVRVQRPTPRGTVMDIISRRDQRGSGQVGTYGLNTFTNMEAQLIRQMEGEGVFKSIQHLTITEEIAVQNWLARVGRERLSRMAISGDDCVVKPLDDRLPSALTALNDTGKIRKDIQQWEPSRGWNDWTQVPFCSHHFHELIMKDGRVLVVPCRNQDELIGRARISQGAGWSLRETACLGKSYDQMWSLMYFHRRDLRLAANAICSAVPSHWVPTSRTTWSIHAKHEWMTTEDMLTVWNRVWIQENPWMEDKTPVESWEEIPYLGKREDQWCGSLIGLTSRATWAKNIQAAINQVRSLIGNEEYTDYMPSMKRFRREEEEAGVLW

C[C@@H]1CCCCO[C@@H](CN(C)Cc2ccc(Cl)c(Cl)c2)[C@H](C)CN([C@H](C)CO)C(=O)c2cc(NC(=O)c3ccccc3)ccc2O1
active: AC50 [1] 3.16 µM | AC50 (Paired box protein Pax-8) 14 µM | AC50 [2] 27.5 µM | AC50 [3] 33.8 µM

C[C@@H]1CN([C@@H](C)CO)C(=O)Cc2cc(NC(=O)NC3CCCCC3)ccc2O[C@@H]1CN(C)Cc1ccc(-c2ccccc2)cc1
active: AC50 (Paired box protein Pax-8) 30.6 µM | AC50 [3] 0.296 µM

Cc1[nH]n(-c2ccccc2)c(=O)c1C(c1ccc(C(=O)O)cc1)c1c(C)[nH]n(-c2ccccc2)c1=O
inactive: IC50 [5] > 66 µM | IC50 [7] > 66 µM
active: IC50 [4] > 528 nM | AC50 [6] 915 nM | IC50 (Genome polyprotein) 20.9 µM | EC50 (Protein RecA) 656 nM

O=C(Nc1cccc(F)c1)N1CC(=O)N2[C@@H](CO)[C@@H](c3ccc(C#Cc4cccnc4)cc3)[C@@H]2C1
active: AC50 [8] 4.54 µM

O=C(O)c1ccccc1S [THIOSALICYLIC ACID]
inactive: IC50 [9] > 20 µM | IC50 [10] > 20 µM | IC50 [11] > 20 µM | IC50 [12] > 20 µM | IC50 [13] > 20 µM | IC50 [14] > 20 µM | IC50 [15] > 20 µM
